Data as given in US20050059585A1, “Methionine aminopeptidase-2 inhibitors and methods of use thereof” (Praecis Pharmaceuticals Inc., priority 2000, published 2005).

What was measured:
Assay in all cases: tumor cell line panel, SRB growth assay
Format in all cases: cell-based
MCF7 = settings: Homo sapiens; MCF7, Breast, 48 hours
Experimental: (§1) The compound of example 5 was also evaluated against a panel of cancer cell lines (Alley, M.C. et al. […] Cancer Research 48: 589-601; Grever, M. R., et al. (1992) Seminars in Oncology, Vol. 19, No. 6, pp 622-638; Boyd, M. R., and Paull, K. D. (1995) Drug Development Research 34: 91-109). The human tumor cell lines of the cancer screening panel were grown in RPMI 1640 medium containing 5% fetal bovine serum and 2 mM L-glutamine. Cells were inoculated into 96 well microtiter plates in 100 μL at plating densities ranging from 5,000 to 40,000 cells/well depending on the doubling time of individual cell lines. After cell inoculation, the microtiter plates were incubated at 37° C., 5 % CO2, 95 % air and 100 % relative humidity for 24 hours prior to addition of experimental drugs.
(§2) After the 24 hour incubation period, two plates of each cell line were fixed in situ with TCA, to represent a measurement of the cell population for each cell line at the time of drug addition (Tz). Experimental drugs were solubilized in dimethyl sulfoxide at 400-fold the desired final maximum test concentration and stored frozen prior to use. At the time of drug addition, an aliquot of frozen concentrate was thawed and diluted to twice the desired final maximum test concentration with complete medium containing 50 μg/ml gentamicin. Additional four, 10-fold or ½ log serial dilutions were made to provide a total of five drug concentrations plus control. Aliquots of 100 μl of these different drug dilutions were added to the appropriate microtiter wells already containing 100 μl of medium, resulting in the required final drug concentrations.
(§3) Following drug addition, the plates were incubated for an additional 48 hours at 37° C., 5 % CO2, 95 % air, and 100 % relative humidity. For adherent cells, the assay was terminated by the addition of cold TCA. Cells were fixed in situ by the gentle addition of 50 μl of cold 50 % (w/v) TCA (final concentration, 10% TCA) and incubated for 60 minutes at 4° C. The supernatant was discarded, and the plates were washed five times with tap water and air dried. Sulforhodamine B (SRB) solution (100 μl) at 0.4 % (w/v) in 1 % acetic acid were added to each well, and plates were incubated for 10 minutes at room temperature. After staining, unbound dye was removed by washing five times with 1 % acetic acid and the plates were air dried. Bound stain was subsequently solubilized with 10 mM trizma base, and the absorbance was read on an automated plate reader at a wavelength of 515 nm. For suspension of the cells, the methodology used was the same except that the assay was terminated by fixing settled cells at the bottom of the wells by gently adding 50 μl of 80 % TCA (final concentration, 16% TCA). Using the seven absorbance measurements [time zero, (Tz), control growth, (C), and test growth in the presence of drug at the five concentration levels (Ti)], the percentage growth was calculated at each of the drug concentrations levels.
(§4) Percentage growth inhibition was calculated as: [(Ti−Tz)/(C−Tz)]×100 for concentrations for which Ti>/=Tz [(Ti−Tz)/Tz]×100 for concentrations for which Ti<Tz.
(§5) Growth inhibition of 50% (GI50) was calculated from [(Ti−Tz)/(C−Tz)]×100=50, which is the drug concentration resulting in a 50% reduction in the net protein increase (as measured by SRB staining) in control cells during the drug incubation. The G150 was calculated for each of the cell lines if the level of activity is reached; however, if the effect was not reached or is exceeded, the value for that parameter is expressed as greater or less than the maximum (10^−4 M) or minimum (10^−8 M) concentration tested.

MDA-N = settings: Homo sapiens, Breast, 48 hours
Experimental: as §1, §2, §3, §4, §5

PC-3 = settings: Homo sapiens; PC-3, Prostate, 48 hours
Experimental: as §1, §2, §3, §4, §5

COLO 205 = settings: Homo sapiens; COLO 205, Colon, 48 hours
Experimental: as §1, §2, §3, §4, §5

SF-268 = settings: Homo sapiens; SF-268, CNS, 48 hours
Experimental: as §1, §2, §3, §4, §5

SK-MEL-2 = settings: Homo sapiens; SK-MEL-2, Melanoma, 48 hours
Experimental: as §1, §2, §3, §4, §5

MOLT-4 = settings: Homo sapiens; MOLT-4, Leukemia, 48 hours
Experimental: as §1, §2, §3, §4, §5

NCI-H522 = settings: Homo sapiens; NCI-H522, Non-Small Cell Lung, 48 hours
Experimental: as §1, §2, §3, §4, §5

MDA-MB-231/ATCC = settings: Homo sapiens, Breast, 48 hours
Experimental: as §1, §2, §3, §4, §5

CO[C@@H]1[C@H](OC(=O)N[C@@H](C(N)=O)C(C)C)CC[C@]2(CO2)[C@H]1[C@@]1(C)O[C@@H]1CC=C(C)C [Example 5, (1-Carbamoyl-2-methyl-propyl)-carbamic acid-(3R, 4S, 5S, 6R )-5-methoxy-4-[(2R, 3R)-2-methyl-3-(3-methyl-but-2-enyl)-oxiranyl]-1-oxa-spiro[2.5]oct-6-yl ester]
GI50 (MCF7): 12.4 µM | GI50 (MDA-N): 1.58 µM | GI50 (PC-3): 18 µM | GI50 (COLO 205): < 0.01 µM | GI50 (SF-268): 26.1 µM | GI50 (SK-MEL-2): > 100 µM | GI50 (MOLT-4): 35.6 µM | GI50 (NCI-H522): 12.9 µM | GI50 (MDA-MB-231/ATCC): < 0.01 µM
